Results as given in US20250195513A1, “DEGRADATION OF IRAK4 BY CONJUGATION OF IRAK4 INHIBITORS WITH E3 LIGASE LIGAND AND METHODS OF USE” (BeiGene, Ltd., priority 2022, published 2025).
pIC50: −log10 of the molar value.

Experiments:
Type in all cases: cell-based
[1] = molecular target: T1, IRAK4 (Homo sapiens, UniProt Q9NWZ3); experiment: IRAK4 Degradation Assay (Karpas299, HTRF/TR-FRET); conditions: Karpas-299 cells; for Dmax: maximum percentage of degradation
T1 construct: endogenous in cells; host or cells: Karpas299
T1 sequence (Q9NWZ3 1-460): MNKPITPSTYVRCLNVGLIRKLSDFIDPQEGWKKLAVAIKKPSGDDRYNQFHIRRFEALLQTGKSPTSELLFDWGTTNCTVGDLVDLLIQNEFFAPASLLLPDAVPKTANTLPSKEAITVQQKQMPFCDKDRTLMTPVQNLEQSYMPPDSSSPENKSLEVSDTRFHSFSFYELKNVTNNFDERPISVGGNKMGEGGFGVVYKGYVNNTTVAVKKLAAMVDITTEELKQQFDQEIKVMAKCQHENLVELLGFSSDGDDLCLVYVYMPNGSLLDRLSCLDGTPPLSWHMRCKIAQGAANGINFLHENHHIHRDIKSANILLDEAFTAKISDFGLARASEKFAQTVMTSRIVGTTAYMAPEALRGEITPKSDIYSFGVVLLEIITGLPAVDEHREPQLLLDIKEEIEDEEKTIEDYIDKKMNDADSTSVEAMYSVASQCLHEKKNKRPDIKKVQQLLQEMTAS
Method in brief: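 Karpas299 cells at 0.2 million per well were exposed to serially diluted compounds for 24 h or 5 h, then lysed. IRAK4 remaining in lysates was quantified by HTRF (665/620 nm) after overnight antibody incubation at room temperature. Percent degradation was fitted to a four-parameter curve to give IC50 (DC50).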

[2] = molecular target: T1, IRAK4; experiment: IRAK4 Degradation Assay with Human Serum (Karpas299, HTRF/TR-FRET); conditions: Karpas-299 in human serum, 24 hrs treatment; for DC50: read-out: IRAK4 degradtion with human serum assay DC50; for Dmax: read-out: IRAK4 degradtion with human serum assay Dmax (%)
Method in brief: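 Karpas299 cells in human AB serum (0.2 million/well) treated with serial compound dilutions for 24 h. After lysis, IRAK4 quantified by HTRF (overnight antibody incubation at room temperature, 665/620 nm read). Degradation percentage fitted to four-parameter curve to give DC50.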

[3] = test system: TNF-α production in THP-1 cells; experiment: TNF-α Production Assay in THP-1 Cells (LPS stimulated); conditions: Homo sapiens, THP-1, 24 h; for Emax: maximum inhibition, read-out: TNF-α (THP-1) 24 h IMax
Method in brief: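 Cells (0.2 million/well) pretreated with compounds for 24 h, then stimulated with LPS at 1 μg/mL final for 24 h. TNF-α in culture supernatant quantified by TR-FRET immunoassay.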

[4] = test system: IL-6 production in human PBMC; experiment: IL-6 Production Assay in Human PBMC (LPS stimulated); conditions: Homo sapiens, 5 h; for Emax: maximum inhibition, read-out: IL-6 (PBMC) 5 h IMax
Description: Frozen human PBMC (AllCells) were thawed in RPMI 1640 medium (Thermo Scientific) supplemented with 10% heat-inactivated FBS (Thermo Scientific) and recovered at 37° C. overnight. The next day, PBMC were seeded into 96-well plates at the density of 0.2 million cells per well and treated with compounds for 24 h. Then lipopolysaccharide was added at the final concentration of 10 ng/mL for 5 h. Culture supernatant was collected for subsequent measurement of IL-6 concentration by a TR-FRET-based method (Degorce, François, et al. Current chemical genomics. 2009, 3: 22) as described by the manufacturer manual (Cisbio). FRET signals were measured with PHERAstar FSX reader (BMG Labtech).

[5] = 5 h treatment, read-out: IRAK4 in Karpas-299 (5 h) Dmax (%)
[6] = 5 h treatment, read-out: IRAK4 in Karpas-299 (5 h) DC50
[7] = 24 h treatment, read-out: IRAK4 in Karpas-299 (24 h) Dmax (%)
[8] = 24 h treatment, read-out: IRAK4 in Karpas-299 (24 h) DC50

How did the Dmax [1, 5] turn out when `CC(C)(O)c1cc2nn([C@H]3CC[C@H](N4CCN(C5CN(c6cc(F)c([C@H]7CCC(=O)NC7=O)c(F)c6)C5)CC4)CC3)cc2cc1NC(=O)c1ccc2cc(C#N)cnn12` [Example 110, 3-cyano-N-(2-((1R,4r)-4-(4-(1-(4-((R)-2,6-dioxopiperidin-3-yl)-3,5-difluorophenyl)azetidin-3-yl)piperazin-1-yl)cyclohexyl)-6-(2-hydroxypropan-2-yl)-2H-indazol-5-yl)pyrrolo[1,2-b]pyridazine-7-carboxamide] was run?
The Dmax was 94%.

What about the DC50 [1, 6] of the same compound?
The DC50 was 1.1 nM.

And the Dmax [1, 7]?
Its Dmax is 98%.

And the DC50 [1, 8]?
The DC50 was 0.8 nM.

What about the DC50 [2] of the same compound?
Its DC50 is 8.3 nM.

What about the Dmax [2] of the same compound?
Its Dmax is 100%.

And the pIC50 [3]?
The pIC50 was 7.57.

And the Emax [3]?
The Emax was 83%.

What about the pIC50 [4] of the same compound?
Its pIC50 is 8.82.

And the Emax [4]?
Its Emax is 63%.

With `CC(C)(O)c1cc2nn([C@H]3CC[C@H](N4CCN(C(=O)C5CN(c6cc(F)c([C@H]7CCC(=O)NC7=O)c(F)c6)C5)CC4)CC3)cc2cc1NC(=O)c1ccc2cc(C#N)cnn12` [Example 178, 3-cyano-N-(2-((1r,4r)-4-(4-(1-(4-((R)-2,6-dioxopiperidin-3-yl)-3,5-difluorophenyl)azetidine-3-carbonyl)piperazin-1-yl)cyclohexyl)-6-(2-hydroxypropan-2-yl)-2H-indazol-5-yl)pyrrolo[1,2-b]pyridazine-7-carboxamide] as the compound, how does the Dmax [1, 5] read?
Its Dmax is 97%.

And the DC50 [1, 6]?
Its DC50 is 0.6 nM.

And the Dmax [1, 7]?
The Dmax was 98%.

What about the DC50 [1, 8] of the same compound?
The DC50 was 0.4 nM.

What about the DC50 [2] of the same compound?
The DC50 was 17 nM.

What about the Dmax [2] of the same compound?
The Dmax was 100%.

And the pIC50 [3]?
The pIC50 was 8.19.

What about the Emax [3] of the same compound?
Its Emax is 92%.

What about the pIC50 [4] of the same compound?
The pIC50 was 8.92.

What about the Emax [4] of the same compound?
Its Emax is 61%.

With `CC(C)(O)c1cc2nn(C34CCC(N5CCN(C6CCN(c7cc(F)c([C@H]8CCC(=O)NC8=O)c(F)c7)CC6)CC5)(CC3)CC4)cc2cc1NC(=O)c1ccc2cc(C#N)cnn12` [Example 333, (R)-3-cyano-N-(2-(4-(4-(1-(4-(2,6-dioxopiperidin-3-yl)-3,5-difluorophenyl)piperidin-4-yl)piperazin-1-yl)bicyclo[2.2.2]octan-1-yl)-6-(2-hydroxypropan-2-yl)-2H-indazol-5-yl)pyrrolo[1,2-b]pyridazine-7-carboxamide] as the compound, how does the Dmax [1, 5] read?
Its Dmax is 98%.

What about the DC50 [1, 6] of the same compound?
The DC50 was 3.9 nM.

What about the Dmax [1, 7] of the same compound?
Its Dmax is 97%.

What about the DC50 [1, 8] of the same compound?
Its DC50 is 2.4 nM.

And the DC50 [2]?
Its DC50 is 23 nM.

And the Dmax [2]?
The Dmax was 93%.

And the pIC50 [3]?
The pIC50 was 8.00.

And the Emax [3]?
The Emax was 96%.

What about the pIC50 [4] of the same compound?
The pIC50 was 8.33.

And the Emax [4]?
The Emax was 62%.

Which results are given for `COC[C@H]1CN([C@H]2CC[C@H](n3cc4cc(NC(=O)c5ccc6cc(C#N)cnn56)c(C(C)(C)O)cc4n3)CC2)CCN1C1CCN(c2cc(F)c([C@H]3CCC(=O)NC3=O)c(F)c2)CC1` [Example 317, 3-cyano-N-(2-((1R,4r)-4-((R)-4-(1-(4-((R)-2,6-dioxopiperidin-3-yl)-3,5-difluorophenyl)piperidin-4-yl)-3-(methoxymethyl)piperazin-1-yl)cyclohexyl)-6-(2-hydroxypropan-2-yl)-2H-indazol-5-yl)pyrrolo[1,2-b]pyridazine-7-carboxamide]?
Dmax [1, 5]: 95%; DC50 [1, 6]: 1.9 nM; Dmax [1, 7]: 96%; DC50 [1, 8]: 0.8 nM; DC50 [2]: 25 nM; Dmax [2]: 100%; pIC50 [3]: 7.39; Emax [3]: 87%; pIC50 [4]: 9.00; Emax [4]: 71%

Which Dmax [1, 7] does the source give for `COC[C@H]1CN(CCc2cc(F)c([C@H]3CCC(=O)NC3=O)c(F)c2)CCN1[C@H]1CC[C@H](n2cc3cc(NC(=O)c4ccc5cc(C#N)cnn45)c(C(C)(C)O)cc3n2)CC1` [Example 321, 3-cyano-N-(2-((1R,4r)-4-((R)-4-(4-((R)-2,6-dioxopiperidin-3-yl)-3,5-difluorophenethyl)-2-(methoxymethyl)piperazin-1-yl)cyclohexyl)-6-(2-hydroxypropan-2-yl)-2H-indazol-5-yl)pyrrolo[1,2-b]pyridazine-7-carboxamide] here?
The Dmax was 96%.

And the DC50 [1, 8]?
The DC50 was 1.4 nM.

What about the DC50 [2] of the same compound?
Its DC50 is 5.5 nM.

What about the Dmax [2] of the same compound?
Its Dmax is 98%.

And the pIC50 [3]?
Its pIC50 is 7.26.

What about the Emax [3] of the same compound?
Its Emax is 77%.

What about the pIC50 [4] of the same compound?
Its pIC50 is 9.40.

What about the Emax [4] of the same compound?
The Emax was 58%.

`CC(C)(O)c1cc2nn([C@H]3CC[C@H](N4CCN([C@H]5C[C@H](c6cc(F)c([C@H]7CCC(=O)NC7=O)c(F)c6)C5)CC4)CC3)cc2cc1NC(=O)c1ccc2cc(C#N)cnn12` [Example 364, 3-cyano-N-(2-((1R,4r)-4-(4-((1R,3R)-3-(4-((R)-2,6-dioxopiperidin-3-yl)-3,5-difluorophenyl)cyclobutyl)piperazin-1-yl)cyclohexyl)-6-(2-hydroxypropan-2-yl)-2H-indazol-5-yl)pyrrolo[1,2-b]pyridazine-7-carboxamide] was tested. Which Dmax [1, 5] did it give?
The Dmax was 96%.

What about the DC50 [1, 6] of the same compound?
Its DC50 is 0.8 nM.

What about the Dmax [1, 7] of the same compound?
The Dmax was 96%.

What about the DC50 [1, 8] of the same compound?
Its DC50 is 1.3 nM.

What about the DC50 [2] of the same compound?
The DC50 was 4.6 nM.

What about the Dmax [2] of the same compound?
The Dmax was 99%.

What about the pIC50 [3] of the same compound?
Its pIC50 is 7.85.

And the Emax [3]?
Its Emax is 98%.

And the pIC50 [4]?
The pIC50 was 9.22.

What about the Emax [4] of the same compound?
The Emax was 74%.

Which results are given for `Cc1nc(C2CCC(=O)NC2=O)ccc1N1CCC(N2CCN([C@H]3CC[C@H](n4cc5cc(NC(=O)c6ccc7cc(C#N)cnn67)c(C(C)(C)O)cc5n4)CC3)CC2)CC1` (stereo partly shown) [Example 398, 3-cyano-N-(2-((1r,4r)-4-(4-(1-(6-(2,6-dioxopiperidin-3-yl)-2-methylpyridin-3-yl)piperidin-4-yl)piperazin-1-yl)cyclohexyl)-6-(2-hydroxypropan-2-yl)-2H-indazol-5-yl)pyrrolo[1,2-b]pyridazine-7-carboxamide]?
Dmax [1, 5]: 97%; DC50 [1, 6]: 1.9 nM; Dmax [1, 7]: 97%; DC50 [1, 8]: 2.3 nM; DC50 [2]: 2.6 nM; Dmax [2]: 98%; pIC50 [3]: 7.68; Emax [3]: 97%; pIC50 [4]: 8.62; Emax [4]: 70%

Which Dmax [1, 7] does the source give for `C[C@@H]1CN(CCc2cc(F)c([C@H]3CCC(=O)NC3=O)c(F)c2)CCN1[C@H]1CC[C@H](n2cc3cc(NC(=O)c4ccc5cc(C#N)cnn45)c(C(C)(C)O)cc3n2)CC1` [Example 299, 3-cyano-N-(2-((1R,4r)-4-((R)-4-(4-((R)-2,6-dioxopiperidin-3-yl)-3,5-difluorophenethyl)-2-methylpiperazin-1-yl)cyclohexyl)-6-(2-hydroxypropan-2-yl)-2H-indazol-5-yl)pyrrolo[1,2-b]pyridazine-7-carboxamide] here?
Its Dmax is 98%.

What about the DC50 [1, 8] of the same compound?
Its DC50 is 0.8 nM.

What about the DC50 [2] of the same compound?
The DC50 was 4.8 nM.

And the Dmax [2]?
The Dmax was 99%.

And the pIC50 [3]?
The pIC50 was 7.37.

What about the Emax [3] of the same compound?
Its Emax is 94%.

What about the pIC50 [4] of the same compound?
Its pIC50 is 8.40.

And the Emax [4]?
The Emax was 74%.

What does the source list for `CC(C)(O)c1cc2nn([C@H]3CC[C@H](N4CCN(CCc5cc(F)c([C@H]6CCC(=O)NC6=O)c(F)c5)CC4)CC3)cc2cc1NC(=O)c1ccc2cc(C#N)cnn12` [Example 182, 3-cyano-N-(2-((1R,4r)-4-(4-(4-((R)-2,6-dioxopiperidin-3-yl)-3,5-difluorophenethyl)piperazin-1-yl)cyclohexyl)-6-(2-hydroxypropan-2-yl)-2H-indazol-5-yl)pyrrolo[1,2-b]pyridazine-7-carboxamide]?
Dmax [1, 5]: 96%; DC50 [1, 6]: 2.3 nM; Dmax [1, 7]: 98%; DC50 [1, 8]: 0.3 nM; DC50 [2]: 3.7 nM; Dmax [2]: 99%; pIC50 [3]: 7.48; Emax [3]: 71%; pIC50 [4]: 8.60; Emax [4]: 64%

Which results are given for `COC[C@@H]1CN([C@H]2CC[C@H](n3cc4cc(NC(=O)c5ccc6cc(C#N)cnn56)c(C(C)(C)O)cc4n3)CC2)CCN1CCc1cc(F)c([C@H]2CCC(=O)NC2=O)c(F)c1` [Example 320]?
Dmax [1, 7]: 99%; DC50 [1, 8]: 1 nM; DC50 [2]: 4.1 nM; Dmax [2]: 98%; pIC50 [3]: 7.37; Emax [3]: 85%; pIC50 [4]: 8.04; Emax [4]: 65%
